How the values were obtained:
[1] = tested on: T47D; experiment: Antiproliferative activity against human T47D cells assessed as inhibition of cell viability incubated for 3 days by MTT/CTG assay; details: 72 h
[2] = tested on: MDA-MB-453; experiment: Antiproliferative activity against human MDA-MB-453 cells assessed as inhibition of cell viability incubated for 3 days by MTT/CTG assay; details: MDA-MB-453, 72 h
[3] = tested on: AGS; experiment: Antiproliferative activity against human AGS cells assessed as inhibition of cell viability incubated for 3 days by MTT/CTG assay; details: 72 h
[4] = tested on: HGC-27; experiment: Antiproliferative activity against human HGC-27 cells assessed as inhibition of cell viability incubated for 3 days by MTT/CTG assay; details: HGC-27, 72 h
[5] = tested on: Pfeiffer; experiment: Antiproliferative activity against human Pfeiffer cells assessed as inhibition of cell viability incubated for 3 days by MTT/CTG assay; details: 72 h
[6] = tested on: PC-3; experiment: Antiproliferative activity against human PC-3 cells assessed as inhibition of cell viability incubated for 3 days by MTT/CTG assay; details: PC-3, 72 h
[7] = tested on: LNCaP; experiment: Antiproliferative activity against human LNCaP cells assessed as inhibition of cell viability incubated for 3 days by MTT/CTG assay; details: 72 h

Cc1nc(NC(=O)N2CCC[C@H]2C(N)=O)sc1-c1ccnc(C(C)(C)C(F)(F)F)c1 [ALPELISIB]
IC50 [1]: 360 nM | IC50 [2]: 770 nM | IC50 [3]: 520 nM | IC50 [4]: 1920 nM | IC50 [5]: > 50000 nM | IC50 [6]: 13200 nM | IC50 [7]: 15800 nM
